The numbers were not newly measured in PMC3792642 (Acta Crystallographica Section D: Biological Crystallography, 2013), which cites them from elsewhere.

In one data set the test system is MtbVKOR. Particulars: ref Dutton et al., 2010; cited from earlier work.
The subject of the next data set is Mtb. Particulars: VKOR-dependent manner; ref Dutton et al., 2010; cited from earlier work.

As to `CC(=O)CC(c1ccccc1)c1c(O)c2ccccc2oc1=O` (centres unmarked) [warfarin], the “Inhibition of MtbVKOR” value in the data set on MtbVKOR was “inhibit MtbVKOR”. Also, the “Inhibition of growth of Mtb” value in the data set with Mtb is reported as “inhibit growth of Mtb”.
